pEC50, pIC50: −log10 of the molar value. Values belong to the molecule of their own block, whether it stands above or below them.
Assays:
Pseudomonas aeruginosa [1] = experiment: Inhibition of Pseudomonas aeruginosa MH602 harboring PlasB::gfp(ASV) reporter assessed as decrease in GFP expression at 250 uM incubated for 22 hrs by fluorescence microplate reader analysis
Pseudomonas aeruginosa [2] = experiment: Inhibition of quorum sensing system in Pseudomonas aeruginosa MH602 PlasB-gfp(ASV) assessed as inhibition of green fluorescent protein production at 62.5 to 250 uM for 20 hrs by fluorescence assay; conditions: dose 62.5-250 µM
Pseudomonas aeruginosa [3] = experiment: Inhibition of quorum sensing system in Pseudomonas aeruginosa MH602 expressing PlasB::gfp assessed as inhibition of GFP fluorescence expression at 250 uM incubated for 15 hrs by fluorescence microplate reader analysis
[4] = biological target: T1, Transcriptional activator protein LasR (Pseudomonas aeruginosa (strain ATCC 15692 / PAO1 / 1C / PRS 101 / LMG12228), UniProt P25084); experiment: Antagonist activity against LasR-mediated quorum sensing system in Pseudomonas aeruginosa PAO1 by spectrophotometric assay
T1 sequence (P25084 whole entry): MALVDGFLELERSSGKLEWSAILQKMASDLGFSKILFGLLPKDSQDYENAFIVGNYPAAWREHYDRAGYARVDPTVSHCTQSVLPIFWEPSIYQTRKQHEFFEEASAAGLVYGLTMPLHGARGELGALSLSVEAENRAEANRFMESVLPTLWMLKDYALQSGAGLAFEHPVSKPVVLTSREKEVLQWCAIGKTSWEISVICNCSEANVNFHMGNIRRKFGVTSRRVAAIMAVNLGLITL

Escherichia coli [5] = experiment: Antagonist activity against quorum sensing system in Pseudomonas aeruginosa PAO1 assessed as inhibition of 3OC6HSL- induced GFP expression at 50 uM by fluorescence analysis; conditions: filed as antagonist
[6] = Antagonist activity against quorum sensing system in Vibrio harveyi BB120 assessed as inhibition of […] incubated for 5 hrs by bioluminescence assay
Escherichia coli [7] = experiment: Inhibition of Escherichia coli DH5alpha LasR co-expressing LasR beta-galactosidase reporter assessed as inhibition of beta-galactosidase activity at 100 uM incubated for 2 hrs by spectrophotometric assay
[8] = Inhibition of Escherichia coli DH5alpha LasR co-expressing LasR beta-galactosidase reporter assessed as inhibition of beta-galactosidase activity incubated for 2 hrs by spectrophotometric assay
[9] = Inhibition of quorum sensing system in Pseudomonas aeruginosa PAO1 assessed as inhibition of pyocyanin production at 15 uM incubated for 12 hrs by spectrophotometric assay
[10] = Inhibition of quorum sensing system in Pseudomonas aeruginosa PAO1 assessed as inhibition of rhamnolipid production at 15 uM incubated for 12 hrs by spectrophotometric assay
Pseudomonas aeruginosa [11] = experiment: Inhibition of biofilm formation in Pseudomonas aeruginosa PAO1 incubated for 12 hrs by crystal violet staining based analysis; format: functional
[12] = Inhibition of quorum sensing system in Pseudomonas aeruginosa PAO1 assessed as decrease in lasI expression at 15 uM incubated for 12 hrs by real-time fluorescent quantitative PCR analysis
Pseudomonas aeruginosa [13] = experiment: Inhibition of quorum sensing system in Pseudomonas aeruginosa MH602 PlasB-gfp(ASV) assessed as inhibition of green fluorescent protein production at 62.5 uM for 20 hrs by fluorescence assay
Pseudomonas aeruginosa [14] = experiment: Inhibition of quorum sensing system in Pseudomonas aeruginosa MH602 PlasB-gfp(ASV) assessed as inhibition of green fluorescent protein production at 125 uM for 20 hrs by fluorescence assay
Pseudomonas aeruginosa [15] = experiment: Inhibition of quorum sensing system in Pseudomonas aeruginosa MH602 PlasB-gfp(ASV) assessed as inhibition of green fluorescent protein production at 250 uM for 20 hrs by fluorescence assay
[16] = Agonist activity against RhlR in Escherichia coli expressing JLD271/pJN105R2/pSC11-rhlI using CPRG as substrate by spectrophotometric assay
[17] = Inhibition of quorum sensing system in Pseudomonas aeruginosa PAO1 assessed as inhibition of elastase production at 15 uM incubated for 12 hrs by Congo red dye based spectrophotometric assay
[18] = Inhibition of quorum sensing system in Pseudomonas aeruginosa PAO1 assessed as decrease in pqsR expression at 15 uM incubated for 12 hrs by real-time fluorescent quantitative PCR analysis
[19] = Inhibition of quorum sensing system in Chromobacterium violaceum CV026 assessed as inhibition of violacein production incubated for 16 to 18 hrs by spectrophotometric assay

SMILES: Cc1ccc2c(c1)C(=O)C(=O)N2C(=O)CCl
inhibition (Pseudomonas aeruginosa [1]): 57.4%

inhibition (Pseudomonas aeruginosa [2]): 28.2%
SMILES: O=C(Cn1cc(-c2cccc([N+](=O)[O-])c2)nn1)Nc1nc2ccccc2[nH]1

inhibition (Pseudomonas aeruginosa [3]): 76.4%
SMILES: C=CCN1CC(Cl)=C(Cl)C1=O

pIC50 [4]: 4.20
SMILES: O=C(CNc1ccc(C(=O)/C=C/c2ccccc2)cc1)N[C@H]1CCOC1=O

inhibition (Pseudomonas aeruginosa [2]): 32%
SMILES: Cc1ccc(-c2cn(CC(=O)Nc3nc4ccccc4[nH]3)nn2)cc1

inhibition (Escherichia coli [5]): 47.9%
SMILES: CCOC(=O)/C=C1\CC(NCc2ccc(C)cc2)C(=O)N1Cc1ccc(C)cc1 (stereo unspecified)

pIC50 [6]: 4.28
SMILES: CCOC(=O)CC(=O)c1ccc(Cl)cc1

inhibition (Escherichia coli [7]): 75% | pIC50 [8]: 4.78
SMILES: COc1ccc(-n2cc(CCC(=O)N[C@H]3CCOC3=O)nn2)cc1

inhibition [9]: 14.2% | inhibition [10]: 20.5% | inhibition [12]: 50.5%
SMILES: O=C(CSc1nc2ccccc2s1)N[C@H]1CCOC1=O
inhibition (INH) (Pseudomonas aeruginosa [11]): 28.6%

pIC50 [6]: 4.28
SMILES: CCOC(=O)CC(=O)c1ccc([N+](=O)[O-])cc1

pIC50 [8]: 5.39
SMILES: Nc1cccc(-n2cc(CCC(=O)N[C@H]3CCOC3=O)nn2)c1

inhibition (Pseudomonas aeruginosa [2]): 63.7%
SMILES: O=C(Cn1cc(-c2ccc([N+](=O)[O-])cc2)nn1)Nc1nc2ccccc2[nH]1

inhibition (Escherichia coli [7]): 14%
SMILES: O=C(Cn1cc(CC2CCCCC2)nn1)N[C@H]1CCOC1=O

pIC50 [6]: 4.02
SMILES: CCOC(=O)CC(=O)c1ccc(C)cc1

inhibition (Pseudomonas aeruginosa [2]): 34%
SMILES: O=C(Cn1cc(-c2ccc(O)cc2)nn1)Nc1nc2ccccc2[nH]1

inhibition (Pseudomonas aeruginosa [13]): 52.9% | inhibition (Pseudomonas aeruginosa [14]): 60.5% | inhibition (Pseudomonas aeruginosa [15]): 65%
SMILES: O=C(Cn1cc(-c2ccc(Cl)cc2)nn1)Nc1nc2ccccc2[nH]1

pIC50 [6]: 4.39
SMILES: CCOC(=O)CC(=O)c1cccc(OC)c1

pIC50 [6]: 4.44
SMILES: CCOC(=O)CC(=O)c1ccc(OC)cc1

inhibition (Pseudomonas aeruginosa [13]): 25% | inhibition (Pseudomonas aeruginosa [14]): 34% | inhibition (Pseudomonas aeruginosa [15]): 42%
SMILES: CCCCCc1cn(CC(=O)Nc2nc3ccccc3[nH]2)nn1

pIC50 [6]: 4.64
SMILES: CCOC(=O)CC(=O)c1ccc(F)cc1

inhibition (Pseudomonas aeruginosa [3]): 30%
SMILES: O=C(NCc1ccccc1)c1ccc(N2CC(Cl)=C(Cl)C2=O)cc1

SMILES: C/C=C/CCC(=O)N[C@H]1CCOC1=O
pEC50 [16]: 5.16

inhibition [9]: 30.3% | inhibition [17]: 18.4% | inhibition [10]: 16.7% | inhibition [12]: 39.2% | inhibition [18]: 57.5%
SMILES: COc1ccccc1NC(=O)NC(=O)CSC(=S)N[C@H]1CCOC1=O
inhibition (INH) (Pseudomonas aeruginosa [11]): 40.3%

SMILES: CCC(C)CC(=O)N[C@H]1CCOC1=O (stereo partly specified)
pEC50 [16]: 5.11

pIC50 [6]: 4.25
SMILES: CCOC(=O)CC(=O)c1cccc(C)c1

inhibition (Escherichia coli [7]): 70% | pIC50 [8]: 4.79
SMILES: O=C(Cn1cc(C2CCCC2)nn1)N[C@H]1CCOC1=O

inhibition (Escherichia coli [7]): 71% | pIC50 [8]: 4.86
SMILES: O=C(Cn1cc(-c2cc(F)cc(F)c2)nn1)N[C@H]1CCOC1=O

pIC50 [4]: 4.33
SMILES: O=C(CNc1ccc(C(=O)/C=C/c2ccc(F)cc2)cc1)N[C@H]1CCOC1=O

pIC50 [19]: 4.54
SMILES: CCCCCC(=O)Nc1ccc(S(=O)(=O)N[C@H]2CCOC2=O)cc1

inhibition (Pseudomonas aeruginosa [3]): 71.4%
SMILES: CCCCN1CC(Cl)=C(Cl)C1=O

SMILES: Cc1ccc2c(c1)C(=O)C(=O)NCc1cnnn1CC(=O)Nc1ccc(C)cc1C(=O)C(=O)NCc1cnnn1CC(=O)N2
inhibition (Pseudomonas aeruginosa [1]): 58.6%

inhibition (Pseudomonas aeruginosa [13]): 25% | inhibition (Pseudomonas aeruginosa [14]): 34% | inhibition (Pseudomonas aeruginosa [15]): 42%
SMILES: CCc1cn(CC(=O)Nc2nc3ccccc3[nH]2)nn1

inhibition (Pseudomonas aeruginosa [13]): 25% | inhibition (Pseudomonas aeruginosa [14]): 34% | inhibition (Pseudomonas aeruginosa [15]): 42%
SMILES: CCCc1cn(CC(=O)Nc2nc3ccccc3[nH]2)nn1

pIC50 [19]: 4.83
SMILES: O=C(Nc1ccc(S(=O)(=O)N[C@H]2CCOC2=O)cc1)c1ccc(F)cc1

inhibition (Escherichia coli [7]): 62% | pIC50 [8]: 5.58
SMILES: O=C(N[C@H]1CCOC1=O)c1ccc(-n2cc(CSc3ccccc3)nn2)cc1

pIC50 [6]: 4.15
SMILES: CCOC(=O)CC(=O)c1cccc([N+](=O)[O-])c1

pIC50 [4]: 4.25
SMILES: COc1cccc(/C=C/C(=O)c2ccc(NCC(=O)N[C@H]3CCOC3=O)cc2)c1

SMILES: CCCCCC(=O)N[C@H]1CCOC1=O
pEC50 [16]: 4.97

pIC50 [4]: 4.33
SMILES: O=C(CNc1ccc(C(=O)/C=C/c2ccc(Cl)c(Cl)c2)cc1)N[C@H]1CCOC1=O

inhibition (Pseudomonas aeruginosa [14]): 5.16% | inhibition (Pseudomonas aeruginosa [15]): 20%
SMILES: COc1ccc(-c2cn(CC(=O)Nc3nc4ccccc4[nH]3)nn2)cc1

Source: ChEMBL document CHEMBL5230154, “Chemical probe of AHL modulators on quorum sensing in Gram-Negative Bacteria and as antiproliferative agents: A review” (Eur J Med Chem, 2021)
